Data reported in patent US20240191187A1, “MEDIA AND METHODS FOR GROWING MAMMARY ORGANOIDS” (STEMCELL TECHNOLOGIES CANADA INC., priority 2021, published 2024).
Entries after “also recorded” stand apart in the source; their conditions may differ.

How the values were obtained:
[1] = system: human mammary epithelial cells; test: Human mammary organoid cell lineage balance by flow cytometry; details: for cell lineage balance, inhibitors of TGFβ signaling: ~10 μM SB431542, ~200-500 nM A77-01, ~5-25 RepSox; for cell lineage balance, ERBB receptor family ligands: ~10-50 ng/mL AREG, ~10-50 ng/mL EGF, ~50-100 ng/mL NRG1; for cell lineage balance across multiple experiments, ERBB ligands: normalized to control lacking ERBB modulators, mean of 2 experiments
Procedure: (§4) Cryopreserved pellet A and pellet B were dissociated into a single cell suspension by treatment with 0.25% Trypsin-EDTA for 5 minutes at 37° C. (with intermittent trituration) and then centrifuged at (300 g for 5 minutes). The supernatant was discarded and the pellet was resuspended in a 100 μg/ml DNase solution for 1 minute at room temperature. The resulting cells were passed through a 37 μm strainer to obtain the single cell suspension.
Each well received between 0.5-1 mL of any one of the various culture media described herein.
The plated single cell suspension of mammary epithelial cells formed into organoids that were passaged approximately every 7-days, with 2-3 full medium changes during such 7-day period. To passage the organoids, the Matrigel domes were broken apart by pipetting in pre-warmed 0.25% Trypsin-EDTA, incubating at 37° C. for ˜ 5-15 minutes and pipetting again. The trypsinization reaction was inactivated by washing in an equal volume of Hanks Balanced Salt Solution supplemented with 2% FBS. Depending on the density and size of organoids a 1:2-1:5 split was performed, with the cells seeded as domes, as described above. Alternatively, cells would be strained through a 37 μm strainer to obtain the single cell suspension and seeded in Matrigel domes as described above.
Organoids were formed in media comprising either BMP signaling activator, ˜50 ng/mL BMP2 or ˜50 ng/mL BMP4, and in media comprising either BMP signaling inhibitor, ˜25-200 ng/mL NOGGIN or ˜10-100 nM LDN193189. Just prior to the first passage, the formed organoids were dissociated and the cell lineage balance was analyzed by flow cytometry.
Organoids were formed in media comprising either no ligand of an ERBB receptor family member, or comprising ˜10-50 ng/mL amphiregulin (AREG), ˜10-50 ng/mL epidermal growth factor (EGF), or ˜50-100 ng/mL heregulin/neuregulin 1 (NRG1). Just prior to the first passage, the formed organoids were dissociated and the cell lineage balance was analyzed by flow cytometry.
Just prior to the first passage, the formed organoids were dissociated and the cell lineage balance was analyzed by flow cytometry.

[2] = system: human mammary epithelial cells; test: Human mammary organoid formation, brightfield microscopy; type: cell-based; details: media comprising NOGGIN or LDN193189 alone vs both; successive passages
Procedure: Fragments of human mammary epithelial cells were isolated from tissue samples obtained from academic collaborators, as follows. Resected tissue samples were minced in a petri dish using a scalpel to cut in a cross-hatched pattern. The minced tissue samples were placed in a dissociation flask in standard culture medium supplemented with BSA, insulin, collagenase and hyaluronidase. The flask was gently shaken overnight on an orbital shaker placed in a 37° C. tissue incubator. The following morning the floating layer of fat was removed by pipette, and the remaining liquid was transferred to a tube and briefly centrifuged at low rpm (˜80 g for 30 seconds). The pellet (A pellet) was set aside and the supernatant was further centrifuged for an incrementally longer period of time and at an incrementally higher rpm (˜200 g for 4 minutes). The pellet (B pellet) was set aside and the supernatant was further centrifuged for a still incrementally longer period of time and at an incrementally higher rpm (˜450 g for 5 minutes).
Cryopreserved pellet A and pellet B were dissociated into a single cell suspension by treatment with 0.25% Trypsin-EDTA for 5 minutes at 37° C. (with intermittent trituration) and then centrifuged at (300 g for 5 minutes). The supernatant was discarded and the pellet was resuspended in a 100 μg/ml DNase solution for 1 minute at room temperature. […]

[3] = system: estrogen receptor localization in mouse mammary organoids; test: ER localization in mouse mammary organoids after transient TGFβ signaling inhibitor exposure (confocal); type: cell-based; details: transient exposure after organoids have formed
Procedure: (§1) In panel A) (human) and in panel B) (mouse) organoids were formed in respective organoid media of this disclosure, and were then transiently exposed to different inhibitors of TGFβ signaling. Organoids were imaged by confocal microscopy after staining for K8, K14, ER and the nuclear stain DAPI.
(§2) Organoids were recovered from Matrigel by incubating in Corning Cell Recovery Solution for 1 hour with rocking on ice. Organoids were then fixed in 4% paraformaldehyde (PFA) at room temperature for 1 hour and stored in PBS at 4° C. After PFA fixation, antigen retrieval was performed by boiling the organoids in sodium citrate buffer for 20 minutes at 96° C. Organoids were permeabilized in a 0.5% Triton-X-100 solution in PBS overnight at room temperature. Samples were blocked by incubating overnight in a solution of 5% goat serum.
(§3) Following fixation and permeabilization, the organoids were incubated sequentially in primary antibody and secondary antibody solutions (as summarized in the table below) overnight at room temperature. Samples were counterstained in a 2 μg/ml DAPI solution for 20 minutes and dehydrated through stepwise incubations in solutions with increasing methanol concentrations (50%, 80%, then 100% methanol). […]

[4] = system: estrogen receptor localization in human mammary organoids; test: ER localization in human mammary organoids after transient TGFβ signaling inhibitor exposure (confocal); type: cell-based; details: transient exposure after organoids have formed
Procedure: as §1, §2, §3

[5] = system: human mammary epithelial cells; test: Human mammary organoids stained for K8/K14, confocal microscopy; type: cell-based; details: Day 17 organoids; 50 ng/mL NRG3, 100 ng/mL AMH, 50 ng/mL GM-CSF
Procedure: as §2
as §3, with “methanol). Organoids were embedded in a solution of 2:1 Benzyl Benzoate-Benzyl alcohol (BABB), transferred to Ibidi glass bottom chamber slides and imaged using a Leica SP8 confocal laser scanning microscope.” for “methanol).”
The effects of modulating signaling through BMP were analyzed across multiple experiments in terms of total cell count among formed organoids (FIG. 9A) and the lineage balance of the cells among formed organoids (FIG. 9B). […]

[6] = system: human mammary epithelial cells; test: Total cell count among formed human mammary organoids; type: cell-based; details: vs control with no modulation of ERBB signaling
Procedure: as §4
Each well received between 0.5-1 mL of any one of the various culture media described herein. […]
The effects of modulating signaling through an ERBB receptor family member were analyzed across multiple experiments in terms of total cell count among formed organoids (FIG. 13A) and the lineage balance of the cells among formed organoids (FIG. 13B).

Cc1cccc(-c2[nH]ncc2-c2ccnc3ccccc23)n1 [A77-01, reference compound] was tested, and the “cell lineage balance, inhibitors of TGFβ signaling” value (shortened to “cell lineage balance, inhibitors”) [1] was “reduce the proportion of stromal cells while either maintaining or improving the proportions of luminal cells”.
For C#Cc1cccc(Nc2ncnc3cc(OCCOC)c(OCCOC)cc23)c1 [Erlotinib, reference compound], the “cell lineage balance, EGF receptor inhibition” value ([1]; ~100 nM Gefitinib and ~100 nM Erlotinib given together, two donor samples) was “negligible or no effect on cell lineage balance”.
For c1ccc2c(-c3cnn4cc(-c5ccc(N6CCNCC6)cc5)cnc34)ccnc2c1 [LDN193189, reference compound], the “cell lineage balance, BMP signaling modulators” value ([1]; just prior to first passage, ~50 ng/mL BMP2 or BMP4, ~25-200 ng/mL NOGGIN or ~10-100 nM LDN193189) was “decreased the number of basal cells while increasing the number of luminal cells” and the “formation of luminal organoids, single vs dual BMP signaling inhibitor” value [2] was “appeared sufficient to bias formation of luminal organoids”.
In the case of Cc1cccc(-c2[nH]ncc2-c2ccc3ncccc3n2)n1 [RepSox], the “cell lineage balance, inhibitors” value [1] is reported as “reduce the proportion of stromal cells while either maintaining or improving the proportions of luminal cells”, the “localization of estrogen receptor, mouse organoids” value [3] is reported as “promoted the localization of estrogen receptor within nuclei” and the “localization of estrogen receptor, human organoids” value [4] is reported as “promoted the localization of estrogen receptor within nuclei”.
In the case of NC(=O)c1ccc(-c2nc(-c3ccc4c(c3)OCO4)c(-c3ccccn3)[nH]2)cc1 [SB431542], the “cell lineage balance, inhibitors” value [1] is reported as “reduce the proportion of stromal cells while either maintaining or improving the proportions of luminal cells”, the “localization of estrogen receptor, mouse organoids” value [3] is reported as “promoted the localization of estrogen receptor within nuclei” and the “localization of estrogen receptor, human organoids” value [4] is reported as “promoted the localization of estrogen receptor within nuclei”.
For “Granulocyte-macrophage Colony Stimulating Factor [GM-CSF]”, the “lineage restriction of organoids formed (K8/K14 staining)” value [5] was “bias the culture of mammary epithelial cells to form basal-restricted organoids; also recorded: Basal-restricted organoids were formed”.
For Neuregulin 3 [NRG3], the “lineage restriction of organoids formed (K8/K14 staining)” value [5] was “bias the culture of mammary epithelial cells to form luminal-restricted organoids; also recorded: Luminal-restricted organoids were formed”.
TGFβ1: ligand of a TGFβ receptor was tested, and the “cell lineage balance, TGFβ receptor ligands” value ([1]; ~50 ng/mL, just prior to first passage) was “an overall negative impact on the percentage of luminal and basal cells, while greatly increasing the proportion of stromal cells”.
For “epidermal growth factor [EGF, ligand of ERBB1]”, the “cell lineage balance, ERBB receptor family ligands” value ([1]; just prior to first passage) was “significantly reduce the number of luminal cells while significantly increasing the number of basal cells”, the “cell lineage balance across multiple experiments, ERBB ligands” value [1] was “the greatest reduction in luminal cells and the greatest increase in basal cells” and the “total cell count among formed organoids, ERBB modulators” value [6] was “highest mitogenic activity”.
heregulin/neuregulin 1 [NRG1] was tested, and the “cell lineage balance, ERBB receptor family ligands” value ([1]; just prior to first passage) was “a minor or no effect on cell lineage balance” and the “cell lineage balance across multiple experiments, ERBB ligands” value [1] was “a higher percentage of luminal cells and a reduction in the percentage of basal cells”.
